Results: patent US8829167B2, “Foliamangiferosides, preparation method and use thereof” (Tianjin University of Traditional Chinese Medicine, priority 2009, dated 2014)

Biological target: T1, α-glucosidase derived from rat intestines (Rattus norvegicus, UniProt P23739)
T1 construct: The brush border membrane is scraped; from tissue; host or cells: Wistar male rat jejunum, brush border membrane (crude preparation)
Assay: α-glucosidase inhibiting activity (sucrose hydrolysis by rat intestinal brush border crude enzyme, glucose assay kit)
Type: biochemical
Settings: for inhibition of the conversion of sucrose into glucose under the catalysis of α-glucosidase in intestines (in words): in vitro; for Inhibition ratio: sucrose substrate, 37° C., 30 min
Procedure: The research process of α-glucosidase inhibiting activity: A Wistar male rat (body weight: about 200 g) is sacrificed by decapitation. The jejunum is taken out. The brush border membrane is scraped and then mixed into 0.1 M maleic acid buffer solution (pH 6.0). The mixture is used as α-glucosidase crude enzyme. 50 uL of sample solution dissolved in 2.5% DMSO is added into 100 uL of […] sucrosebase solution, into which 50 uL of the α-glucosidase solution derived from rat intestines is added. The mixture is reacted for 30 minutes at 37° C. before adding 800 uL of water and placing into boiling water bath for 2 minutes to be inactivated. The amount of the glucose produced is assayed with glucose assay kits.
Preparation of Sample Solution Group
0.1 M of maleic acid aqueous solution is mixed with 0.1 M of sodium maleate aqueous solution. The mixture is adjusted to pH 6.0 and is used as 0.1 M of maleic acid buffer solution. A sample is dissolved into DMSO solution and diluted 10 times with 0.1 M of maleic acid buffer solution. A sample solution is obtained and ready to use.
Sample group: The group in which a sample is added according to the experimental procedure described above (the samples are foliamangiferoside A (obtained in example 1) and foliamangiferoside B (obtained in example 2)); Control group: The group in which 2.5% DMSO solution is added according to the experimental procedure described above; Blank group: The type and amount of the agents are the same with those in sample group except that 800 uL of water is added immediately after 50 uL of the α-glucosidase solution derived from rat intestines is added, then the mixture is placed into a boiling water bath for 2 minutes to conduct inactivation. Furthermore, the similar experiments are conducted with ethanolic extracts of mango leaves (the product obtained in step 1 of example 1).
The following equation is used to calculate the inhibition ratio (%): inhibition ratio (%)=(A−B)/(A−C)*100
wherein, A is the absorbance of control group, B is the absorbance of sample group and C is the absorbance of blank group.

T1 sequence (P23739 whole entry): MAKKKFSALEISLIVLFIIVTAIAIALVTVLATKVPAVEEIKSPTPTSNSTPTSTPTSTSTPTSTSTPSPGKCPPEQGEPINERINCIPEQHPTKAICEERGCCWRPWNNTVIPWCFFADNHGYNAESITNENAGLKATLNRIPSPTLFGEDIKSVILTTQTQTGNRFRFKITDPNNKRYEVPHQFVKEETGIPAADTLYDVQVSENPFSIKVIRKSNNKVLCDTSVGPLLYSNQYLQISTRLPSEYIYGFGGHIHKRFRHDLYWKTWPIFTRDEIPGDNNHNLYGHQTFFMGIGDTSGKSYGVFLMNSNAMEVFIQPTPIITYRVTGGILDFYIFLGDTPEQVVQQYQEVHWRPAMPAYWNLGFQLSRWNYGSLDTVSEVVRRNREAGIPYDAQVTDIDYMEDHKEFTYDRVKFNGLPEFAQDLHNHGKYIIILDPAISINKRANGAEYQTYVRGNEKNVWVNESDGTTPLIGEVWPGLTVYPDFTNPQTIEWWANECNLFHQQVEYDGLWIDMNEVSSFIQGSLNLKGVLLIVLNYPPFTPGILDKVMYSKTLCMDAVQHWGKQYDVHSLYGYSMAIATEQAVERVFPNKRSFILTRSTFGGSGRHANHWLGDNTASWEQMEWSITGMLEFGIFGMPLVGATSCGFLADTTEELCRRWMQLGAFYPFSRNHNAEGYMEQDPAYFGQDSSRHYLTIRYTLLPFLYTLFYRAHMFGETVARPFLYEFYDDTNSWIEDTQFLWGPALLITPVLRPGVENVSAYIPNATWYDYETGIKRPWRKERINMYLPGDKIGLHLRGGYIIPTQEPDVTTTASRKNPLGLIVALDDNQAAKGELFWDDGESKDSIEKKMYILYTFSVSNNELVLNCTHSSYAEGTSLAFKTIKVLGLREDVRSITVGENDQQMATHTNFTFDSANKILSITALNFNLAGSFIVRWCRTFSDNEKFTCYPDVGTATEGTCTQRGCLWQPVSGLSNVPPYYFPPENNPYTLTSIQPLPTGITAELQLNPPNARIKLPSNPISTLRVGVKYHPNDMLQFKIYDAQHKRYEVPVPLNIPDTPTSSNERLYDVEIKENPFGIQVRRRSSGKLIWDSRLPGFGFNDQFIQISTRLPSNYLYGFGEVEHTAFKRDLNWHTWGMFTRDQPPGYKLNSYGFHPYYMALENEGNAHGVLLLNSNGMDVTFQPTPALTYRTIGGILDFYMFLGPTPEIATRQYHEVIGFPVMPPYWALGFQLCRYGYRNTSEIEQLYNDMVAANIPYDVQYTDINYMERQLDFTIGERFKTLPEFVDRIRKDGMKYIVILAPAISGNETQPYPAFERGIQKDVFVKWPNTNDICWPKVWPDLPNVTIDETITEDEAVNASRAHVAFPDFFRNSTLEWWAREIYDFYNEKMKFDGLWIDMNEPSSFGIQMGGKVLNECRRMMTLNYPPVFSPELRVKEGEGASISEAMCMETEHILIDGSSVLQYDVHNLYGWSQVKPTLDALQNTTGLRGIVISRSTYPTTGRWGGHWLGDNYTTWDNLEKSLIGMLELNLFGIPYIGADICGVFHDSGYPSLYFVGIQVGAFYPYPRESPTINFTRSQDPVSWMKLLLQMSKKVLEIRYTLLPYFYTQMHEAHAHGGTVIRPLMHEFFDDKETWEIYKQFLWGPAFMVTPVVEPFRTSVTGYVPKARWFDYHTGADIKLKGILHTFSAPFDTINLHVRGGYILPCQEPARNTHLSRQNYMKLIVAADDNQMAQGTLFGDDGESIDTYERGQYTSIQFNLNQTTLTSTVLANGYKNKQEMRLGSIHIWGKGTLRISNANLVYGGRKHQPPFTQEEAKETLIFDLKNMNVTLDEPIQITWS

| inhibition of the conversion of sucrose into glucose under the catalysis of α-glucosidase in intestines (in words) | Sample group Conc. of glucose hydrolyzed (sample 50 uM) | Inhibition ratio (sample 50 uM) | Sample group Conc. of glucose hydrolyzed (sample 100 uM) | Inhibition ratio (sample 100 uM) | Sample group Conc. of glucose hydrolyzed (sample 200 uM) | Inhibition ratio (sample 200 uM) | Sample group Conc. of glucose hydrolyzed (sample 400 uM) | Inhibition ratio (sample 400 uM) | Inhibition ratio (sample 400 uM, listed as foliamangiferoside A) | Inhibition ratio (sample 400 uM, listed as foliamangiferoside B) | SMILES |
| --- | --- | --- | --- | --- | --- | --- | --- | --- | --- | --- | --- |
| can effectively inhibit | 5.23 mg/dL | 15.8% | 4.64 mg/dL | 20.2% | 4.12 mg/dL | 26.2% | 3.09 mg/dL | 58.2% | 58.2% |  | COc1cc(O)c(C(=O)c2ccc(O)cc2)c(O)c1[C@@H]1O[C@H](CO)[C@@H](O)[C@H](O)[C@H]1O [Foliamangiferoside A, foliamangiferoside A] |
| can effectively inhibit | 5.23 mg/dL | 19.6% | 4.64 mg/dL | 23.9% | 4.12 mg/dL | 29.6% | 3.71 mg/dL | 45.6% |  | 45.6% | COc1cc(C(=O)c2c(O)cc(OC)c([C@@H]3OC(CO)[C@@H](O)C(O)C3O)c2O)ccc1O (some centres unmarked) [Foliamangiferoside B, foliamangiferoside B] |
